Data on eleven compounds can be found in ChEMBL document CHEMBL5380843 (J Med Chem, 2023).

Series [1] concerns Human immunodeficiency virus 1. In words: Antiviral activity against wild type HIV-1 IIIB infected in human MT4 cells assessed as protection against virus-induced cytopathic effect incubated for 5 days by MTT assay. The class given is functional, organism-based. Particulars: Human immunodeficiency virus 1, IIIB, MT4, 120 h. For orientation: Protection from cytopathic effect is a common read-out in antiviral testing.

Series [2] can be described thus: Selectivity index, ratio of CC50 for cytotoxicity against human MT4 cells to EC50 for antiviral activity against wild type HIV-1 IIIB infected in human MT4 cells. Particulars: read-out: Ratio CC50/EC50. The class given is toxicity, cell-based.
Series [3] can be described thus: Cytotoxicity against human MT4 cells assessed as reduction in cell viability incubated for 5 days by MTT assay. Particulars: time 5 day. The class given is toxicity, cell-based. For orientation: Formazan colour is commonly taken as a measure of viable cells.
Series [4] has as its system Human immunodeficiency virus 1. In words: Antiviral activity against wild type HIV-1 IIIB harboring reverse transcriptase […] mutant infected in human MT4 cells assessed as protection against virus-induced cytopathic effect incubated for 5 days by MTT assay. The class given is functional, organism-based. Particulars: Human immunodeficiency virus 1, IIIB, MT4, 120 h.

Series [5] is described as follows: Resistant factor, ratio of EC50 for antiviral activity against HIV-1 IIIB harboring reverse transcriptase […] mutant to EC50 for antiviral activity against wild type HIV-1 IIIB. The format is functional.
Series [6] deals with Human immunodeficiency virus 1. The series can be described thus: Antiviral activity against wild type HIV-1 IIIB harboring reverse transcriptase K103N mutant infected in human MT4 cells assessed as protection against virus-induced cytopathic effect incubated for 5 days by MTT assay. Particulars: Human immunodeficiency virus 1, IIIB, MT4, 120 h. The class given is functional, organism-based.

A short description of series [7]: Resistant factor, ratio of EC50 for antiviral activity against HIV-1 IIIB harboring reverse transcriptase K103N mutant to EC50 for antiviral activity against wild type HIV-1 IIIB. The class given is functional.
For series [8], the system named is Human immunodeficiency virus 1. In words: Antiviral activity against wild type HIV-1 IIIB harboring reverse transcriptase Y181C mutant infected in human MT4 cells assessed as protection against virus-induced cytopathic effect incubated for 5 days by MTT assay. The conditions noted are these: Human immunodeficiency virus 1, IIIB, MT4, 120 h. The class given is functional, organism-based.

Series [9] can be described thus: Resistant factor, ratio of EC50 for antiviral activity against HIV-1 IIIB harboring reverse transcriptase Y181C mutant to EC50 for antiviral activity against wild type HIV-1 IIIB. The class given is functional.
Series [10] concerns Human immunodeficiency virus 1. In words: Antiviral activity against wild type HIV-1 IIIB harboring reverse transcriptase Y188L mutant infected in human MT4 cells assessed as protection against virus-induced cytopathic effect incubated for 5 days by MTT assay. The class given is functional, organism-based. Particulars: Human immunodeficiency virus 1, IIIB, MT4, 120 h.
Series [11] can be described thus: Resistant factor, ratio of EC50 for antiviral activity against HIV-1 IIIB harboring reverse transcriptase Y188L mutant to EC50 for antiviral activity against wild type HIV-1 IIIB. The class given is functional.
In series [12] the test system is Human immunodeficiency virus 1. The series can be described thus: Antiviral activity against wild type HIV-1 IIIB harboring reverse transcriptase E138K mutant infected in human MT4 cells assessed as protection against virus-induced cytopathic effect incubated for 5 days by MTT assay. The format is functional, organism-based. Particulars: Human immunodeficiency virus 1, IIIB, MT4, 120 h.

Series [13] can be described thus: Resistant factor, ratio of EC50 for antiviral activity against HIV-1 IIIB harboring reverse transcriptase E138K mutant to EC50 for antiviral activity against wild type HIV-1 IIIB. The format is functional.
Series [14] deals with Human immunodeficiency virus type 1 reverse transcriptase (Human immunodeficiency virus 1, UniProt Q72547). The series can be described thus: Inhibition of recombinant wild type HIV-1 reverse transcriptase using DNA/RNA as substrate incubated for 40 mins by Pico-green dye based spectrofluorometric analysis.
Series [15] concerns the target Cytochrome P450 2C19 (Homo sapiens, UniProt P33261). The series can be described thus: Inhibition of CYP2C19 in human liver microsomes using S-mephenytoin as substrate incubated for 15 to 45 mins in presence of NADPH. The format is ADME, Microsome. (In general: Liver microsomes are vesicles of endoplasmic reticulum, rich in cytochrome P450 enzymes.)

By EC50 is commonly meant the concentration at which the effect is half-maximal. Broadly, the CC50 is the concentration giving 50% cytotoxicity. As usually defined, the IC50 is the concentration that gives 50% inhibition.

Some results are limits rather than exact numbers.

Chain of Cytochrome P450 2C19 (P33261 whole entry): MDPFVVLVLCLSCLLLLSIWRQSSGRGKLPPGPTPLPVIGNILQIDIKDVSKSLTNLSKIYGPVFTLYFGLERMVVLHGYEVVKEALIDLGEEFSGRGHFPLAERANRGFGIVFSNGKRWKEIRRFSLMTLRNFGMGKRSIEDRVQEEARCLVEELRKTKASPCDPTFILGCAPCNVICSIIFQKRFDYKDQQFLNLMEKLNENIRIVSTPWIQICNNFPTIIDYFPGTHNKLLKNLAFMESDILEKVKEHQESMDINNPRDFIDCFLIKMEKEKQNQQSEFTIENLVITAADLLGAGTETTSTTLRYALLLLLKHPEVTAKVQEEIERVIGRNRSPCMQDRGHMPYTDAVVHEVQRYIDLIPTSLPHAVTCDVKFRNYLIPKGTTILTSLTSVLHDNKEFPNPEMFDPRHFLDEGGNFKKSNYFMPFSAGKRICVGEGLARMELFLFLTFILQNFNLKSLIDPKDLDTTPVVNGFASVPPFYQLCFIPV

Regarding `Cc1cc(-c2ccc(C#N)cc2)cc(C)c1Oc1nc(Nc2ccc(C#N)cc2)ncc1C(=O)NC(C)C`, the EC50 in [1] stood at 37 nM; in series [4] it was 144 nM; in series [6], 82 nM; in series [8] it was 334 nM; in series [10], 563 nM; in [12], 71 nM. In addition, the selectivity ratio in [2] stood at 1750. In addition, in series [3], the CC50 at 120 h turned out to be 64700 nM. Moreover, the “Ratio EC50” value stood at 3.9 in [5]; 2.2 in [7]; 9 in series [9]; 15 in [11]; 1.9 in series [13]. Moreover, in [14], the IC50 came out at 199 nM.

For `Cc1cc(-c2ccc(C#N)cc2)cc(C)c1Oc1nc(Nc2ccc(C#N)cc2)ncc1C(=O)NC1CC1`, the 50% effective concentration (EC50) turned out to be 11 nM in series [1]; 51 nM in series [4]; 32 nM in series [6]; 157 nM in series [8]; 209 nM in series [10]; 31 nM in series [12]. Further, the selectivity ratio in series [2] was 10600. In addition, the CC50 at 120 h in [3] came out at 116000 nM. Further, the “Ratio EC50” value in series [5] is reported as 4.6; in series [7] it was 2.9; in [9], 14; in series [11], 19; in series [13] it was 2.8. In series [14], the IC50 was 111 nM.

Take `Cc1cc(-c2ccc(C#N)cc2)cc(C)c1Oc1nc(Nc2ccc(C#N)cc2)ncc1C(=O)NCC1CC1`: the EC50 in series [1] turned out to be 102 nM; in series [4], 872 nM; in [6], 445 nM; in series [8] it was 1160 nM; in [10] it was 1900 nM; in series [12], 248 nM. Also, in [2], the selectivity ratio was determined as 2060. Further, the CC50 at 120 h in [3] amounted to 210000 nM. For the same compound, the “Ratio EC50” value worked out at 8.5 in series [5]; 4.4 in series [7]; 11 in series [9]; 19 in series [11]; 2.4 in [13]. In addition, the IC50 in [14] is 294 nM.

With `Cc1cc(-c2ccc(C#N)cc2)cc(C)c1Oc1nc(Nc2ccc(C#N)cc2)ncc1C(=O)NC1CCCC1`, the EC50 is 145 nM in series [1]; 1780 nM in series [4]; 960 nM in series [6]; 3350 nM in [8]; 4650 nM in series [10]; 573 nM in series [12]. The selectivity ratio in series [2] is over 1630. Besides, in series [3], the CC50 at 120 h was over 236000 nM. Further, the “Ratio EC50” value in series [5] is listed as 12; in series [7], 6.6; in series [9] it was 23; in [11], 32; in series [13] it was 4. Besides, the IC50 in series [14] is 329 nM.

Consider `Cc1cc(-c2ccc(C#N)cc2)cc(C)c1Oc1nc(Nc2ccc(C#N)cc2)ncc1C(=O)NCCO`, for which the EC50 was found to be 3 nM in [1]; 13 nM in [4]; 6 nM in [6]; 29 nM in series [8]; 44 nM in series [10]; 6 nM in [12]. Also, in series [2], the selectivity ratio is over 11900. In [3], the CC50 at 120 h is over 39600 nM. Besides, the “Ratio EC50” value turned out to be 3.9 in [5]; 1.8 in [7]; 8.8 in [9]; 13 in [11]; 1.8 in [13]. Further, the IC50 in series [14] is 55 nM.

Consider `CCONC(=O)c1cnc(Nc2ccc(C#N)cc2)nc1Oc1c(C)cc(-c2ccc(C#N)cc2)cc1C`, for which the EC50 in series [1] stood at 5 nM; in series [4] it was 34 nM; in series [6] it was 12 nM; in series [8], 46 nM; in [10] it was 138 nM; in series [12] it was 7 nM. Also, in series [2], the selectivity ratio was over 44200. In series [3], the CC50 at 120 h was over 248000 nM. For the same compound, the “Ratio EC50” value worked out at 6.1 in series [5]; 2.1 in [7]; 8.2 in series [9]; 25 in series [11]; 1.3 in series [13]. For the same compound, in [14], the IC50 came to 94 nM.

Consider `COCCNC(=O)c1cnc(Nc2ccc(C#N)cc2)nc1Oc1c(C)cc(-c2ccc(C#N)cc2)cc1C`, for which the EC50 in [1] was 5 nM; in series [4], 74 nM; in series [6], 33 nM; in [8], 58 nM; in series [10], 190 nM; in series [12] it was 20 nM. Also, the selectivity ratio in series [2] was 28100. In addition, the CC50 at 120 h in series [3] was 161000 nM. Besides, the “Ratio EC50” value in series [5] is 13; in series [7] it was 5.8; in series [9], 10; in series [11], 33; in series [13], 3.5. Further, in [14], the IC50 was 128 nM.

As to `Cc1cc(-c2ccc(C#N)cc2)cc(C)c1Oc1nc(Nc2ccc(C#N)cc2)ncc1C(=O)NC1CCC1`, the EC50 in series [1] stood at 65 nM; in [4], 396 nM; in series [6] it was 308 nM; in series [8], 1020 nM; in [10], 1320 nM; in series [12] it was 171 nM. Moreover, in series [2], the selectivity ratio was over 3750. The CC50 at 120 h in series [3] was over 243000 nM. Moreover, the “Ratio EC50” value in series [5] was determined as 6.1; in series [7], 4.7; in series [9], 16; in series [11], 20; in series [13] it was 2.6. For the same compound, the IC50 in series [14] stood at 327 nM.

Turning to `C#CCNC(=O)c1cnc(Nc2ccc(C#N)cc2)nc1Oc1c(C)cc(-c2ccc(C#N)cc2)cc1C`, the EC50 in series [1] stood at 5 nM; in series [4], 16 nM; in [6], 9 nM; in series [8], 31 nM; in series [10], 59 nM; in [12], 13 nM. Also, in series [2], the selectivity ratio was 25700. For the same compound, in series [3], the CC50 at 120 h was determined as 145000 nM. The “Ratio EC50” value in series [5] turned out to be 2.9; in [7], 1.6; in [9] it was 5.5; in [11] it was 11; in series [13] it was 2.3. For the same compound, in series [14], the IC50 amounted to 72 nM.

On to `Cc1cc(-c2ccc(C#N)cc2)cc(C)c1Oc1nc(Nc2ccc(C#N)cc2)ncc1C(=O)NC1CCCCC1`, for which the EC50 in [1] was determined as 174 nM; in [4], 1680 nM; in [6], 1330 nM; in series [8] it was 4460 nM; in series [10], 5140 nM; in [12] it was 817 nM. In series [2], the selectivity ratio was over 1320. Further, the CC50 at 120 h in [3] was over 230000 nM. Besides, the “Ratio EC50” value came to 9.7 in series [5]; 7.6 in series [7]; 26 in [9]; 30 in series [11]; 4.7 in [13]. Moreover, in series [14], the IC50 stood at 329 nM.

For `C=C(C)[C@@H]1CCC2=CC(=O)C[C@@H](C)[C@]2(C)C1` [NOOTKATONE], the IC50 in [15] is 1570 nM.
